Measured values as given in PMC10916382, “Repurposing screen identifies novel candidates for broad-spectrum coronavirus antivirals and druggable host targets” (Antimicrobial Agents and Chemotherapy, 2024).
Like-named read-outs stand apart in the source and are kept apart here.

Tests used:
[1] = tested on: primary human airway epithelial cells; details: dose range 0.15 µM to 10 µM, cellular lysates
SARS-CoV-2 [2] = details: for SI (CC50/IC50): CC50 from LDH assay / IC50 from qRT-PCR
SARS-CoV-2 [3] = details: Calu-3 cells; for total cell numbers / reduction of infected cell numbers: 5 µM, relative to DMSO; for total cell numbers: DAPI; for reduction of infected cell numbers: N protein immunofluorescence; for outcome against confirmation criteria of the SARS-CoV-2 counter-screen (<50% infected cell, >75% total cells): single dose of 5 µM
HCoV-229E [4] = experiment: microbe, parasite or virus in culture; format: cell-based, Homo sapiens sapiens
Huh-7.5/F-Luc cells = details: for CC50 (µM): Huh-7.5 cells, dose series, maximum tested dose 5 µM; for % cell viability at max. dose [5 µM]: at max. dose 5 µM
Calu-3 cells = details: LDH release, non-infected Calu-3 cells, 48 hours of drug treatment
SARS-CoV-2 [5] = format: cell-based; details: dose range 0.15 µM to 10 µM, viral genome copies in apical washes and cellular lysates
SARS-CoV-2 [6] = experiment: microbe, parasite or virus in culture; details: Severe acute respiratory syndrome coronavirus 2, Calu-3, 48 h
in vitro [7] = details: human
SARS-CoV-2 [8] = details: Calu-3 and Vero cells; cited from earlier work
HCoV-229E [9] = tested on: HCoV-229E; design: method as in PMID 34446714; details: Huh-7.5 cells; cited from earlier work
Huh-7.5/F-Luc/Cas9 cells = details: twelve-step 1:3 dilutions, n = 3
HCoV-229E [10] = experiment: Twelve-step dose titration against HCoV-229E infection on Huh-7.5/F-Luc/Cas9 cells; format: cell-based, Homo sapiens sapiens; details: n = 3
in vitro [11] = details: Anti-SARS-CoV-2 screening on Calu-3 cells: viability [% of control], Calu-3 cells
in vitro [12] = details: human; remark: listed apart in the source
[13] = Human coronavirus 229E, Huh7.5, twelve-step 1:3 dilutions

SMILES	cytotoxicity in HAE cells, GAPDH mRNA [1]	SI (CC50/IC50) (SARS-CoV-2 [2]; Calu-3 cells)	total cell numbers (SARS-CoV-2 [3]) [%]	reduction of infected cell numbers (SARS-CoV-2 [3])	Anti-SARS-CoV-2 screening on Calu-3 cells: intracellular SARS-CoV-2 infection measured via immunofluorescence imaging [% of control] (SARS-CoV-2 [3])	CC50 (µM) (Huh-7.5/F-Luc cells)	antiviral activity against SARS-CoV-2 in HAE cells (SARS-CoV-2 [5])	IC50 (SARS-CoV-2 [6]) [nM]	IC90 (SARS-CoV-2 [6]) [nM]	CC50 (in vitro [7]) [nM]	further results
C#CCOc1ccc2c(c1)c(-c1ccc(C(C)C)cc1)nc(=O)n2Cc1ccc(Br)cc1 [AXT-914, reference compound]	without reducing GAPDH mRNA levels	> 7.08	≥ 75	more than 50%	20.74 % of control	greater than maximum tested dose	dose dependently inhibited SARS-CoV-2 infection				IC50 (SARS-CoV-2 [2]): 5650 nM; IC90 (SARS-CoV-2 [2]): 21800 nM; Anti-SARS-CoV-2 screening on Calu-3 cells: viability [% of control] (SARS-CoV-2 [3]): 76.99 % of control; IC50 (HCoV-229E [4]; HCoV 229E infection, dose series, max. dose 5 µM, read-out: IC50): 50 nM; % cell viability at max. dose [5 µM] (Huh-7.5/F-Luc cells): 127.46%; CC50 (Calu-3 cells): > 40000 nM
CN1CC[C@H](c2c(O)cc(O)c3c(=O)cc(-c4ccccc4Cl)oc23)[C@H](O)C1 [Flavopiridol]		2.21	≥ 75	more than 50%			the reduction in viral genome copies could not be separated from an increase in cytotoxicity	210	520	460	outcome against confirmation criteria of the SARS-CoV-2 counter-screen (<50% infected cell, >75% total cells) (SARS-CoV-2 [3]): qualified as a hit in both imaging- and qRT-PCR-based assays
Cc1ccccc1N=Nc1ccc(NC(=O)c2ccnn2C)c(C)c1 [CH223191]											effect on SARS-CoV-2 infection (SARS-CoV-2 [8]): decreased HCoV-229E and SARS-CoV-2 infection; effect on HCoV-229E infection (HCoV-229E [9]): decreased HCoV-229E and SARS-CoV-2 infection
F/C(COc1ccc2c(c1)[nH]c1ccccc12)=C1/CN2CCC1CC2 [YM-53601]											CC50 (Huh-7.5/F-Luc/Cas9 cells): 28100 nM; IC50 (HCoV-229E [10]; twelve-step 1:3 dilutions): 1610 nM
CC1(C)CC[C@]2(NC(=O)C(C)(F)F)CC[C@]3(C)[C@H](C(=O)C=C4[C@@]5(C)C=C(C#N)C(=O)C(C)(C)[C@@H]5CC[C@]43C)[C@@H]2C1 [Omaveloxolone]	maintaining high cell viability	> 8.66					inhibited SARS-CoV-2 infection at 1.25 µM and 2.5 µM	140	2410	> 1250	outcome against confirmation criteria of the SARS-CoV-2 counter-screen (<50% infected cell, >75% total cells) (SARS-CoV-2 [3]): did not meet the inclusion criteria; IC50 (HCoV-229E [4]; Human coronavirus 229E, Huh7.5, 48 h, read-out: IC50 against HCoV-229E): 78 nM
CC/C(=C(/C#N)c1ccc(OCCN(CC)CC)cc1)c1ccc(Cl)cc1 [P-3622, Z-3-(4-chlorophenyl)-2-(4-(2-(diethylamino)ethoxy)phenyl)pent-2-enenitrile]	well tolerated	2.09			97.91 % of control	greater than maximum tested dose	limited antiviral activity	9350	23400	19500	IC50 (HCoV-229E [4]; Human coronavirus 229E, Huh7.5): 880 nM; IC50 (HCoV-229E [10]; [13]): 359 nM; viability (in vitro [11]): 97.7%
Cc1cc(-c2nc3cc(F)ccc3s2)ccc1NC(=O)[C@@H](N)CCCCN [Phortress, reference compound]	without reducing GAPDH mRNA levels	1.49	≥ 75	more than 50%	46.05 % of control	greater than maximum tested dose	dose dependently inhibited SARS-CoV-2 infection				IC90 (SARS-CoV-2 [2]; Calu-3 cells, viral genome copies in supernatant 48 hours post-infection): 164000 nM; IC50 (SARS-CoV-2 [2]; Calu-3 cells, viral genome copies in supernatant 48 hours post-infection, n = 3): 13300 nM; Anti-SARS-CoV-2 screening on Calu-3 cells: viability [% of control] (SARS-CoV-2 [3]): 106.32 % of control; IC50 (HCoV-229E [4]; Huh-7.5/F-Luc cells, 8-step dose series, 48 hours at 33°C, read-out: IC50 against HCoV-229E): 230 nM; % cell viability at max. dose [5 µM] (Huh-7.5/F-Luc cells): 252.77%; CC50 (Calu-3 cells): 19900 nM
C=C(CC[C@]12O[C@H](C(=O)O)[C@@](O)(C(=O)O)[C@](C(=O)O)(O1)[C@H](OC(=O)/C=C/[C@@H](C)C[C@@H](C)CC)[C@H]2O)[C@@H](OC(C)=O)[C@H](C)Cc1ccccc1 [Zaragozic Acid A, Zaragozic acid A]											CC50 (in vitro [12]): > 100000 nM; IC50 (HCoV-229E [10]; [13]): 1930 nM
